According to ChEMBL document CHEMBL1121629, “1-(Aminoalkyl)-6-aryl-4-H-s-triazolo[4,3-a][1,4]benzodiazepines with antianxiety and antidepressant activity” (1980):

Tests used:
Format in all cases: functional
Mus musculus [1] = organism: Mus musculus; assay: Tested for stereotyped gnawing and licking behavior of mice pretreated with apomorphine (AG)
Mus musculus [2] = organism: Mus musculus; assay: Tested for potentiation of yohimbine toxicity in aggregated mice(Y)
Mus musculus [3] = organism: Mus musculus; assay: Tested for antagonism of pentylenetetrazole-induced clonic convulsions (P) in mice
Mus musculus [4] = organism: Mus musculus; assay: Prolongation of hypoxic survival time (HS) in mice
Mus musculus [5] = organism: Mus musculus; assay: Tested for antagonism of oxotremorine hypothermia (OX) in mice
Mus musculus [6] = organism: Mus musculus; assay: Tested for antagonism of bicuculline-induced tonic-extensor convulsions (B) in mice
Mus musculus [7] = organism: Mus musculus; assay: Tested for potentiation of gamma-butyrolactone induced sleep (gamma-B) in mice
Mus musculus [8] = organism: Mus musculus; assay: Tested for antagonism of nicotine-induced death (D) in mice
Mus musculus [9] = organism: Mus musculus; assay: Tested for antagonism of nicotine-induced tonic extensor convulsions (TE) in mice

| SMILES | ED50 (Mus musculus [1]) [mg/kg] | ED50 (Mus musculus [2]) [mg/kg] | ED50 (Mus musculus [3]) [mg/kg] | ED50 (Mus musculus [4]) [mg/kg] | ED50 (Mus musculus [5]) [mg/kg] | ED50 (Mus musculus [6]) [mg/kg] | ED50 (Mus musculus [7]) [mg/kg] | ED50 (Mus musculus [8]) [mg/kg] | ED50 (Mus musculus [9]) [mg/kg] |
| --- | --- | --- | --- | --- | --- | --- | --- | --- | --- |
| CN(C)CCc1nnc2n1-c1ccc(Br)cc1C(c1ccccc1)=NC2 | > 50 | 3 | 5 | 5 | 0.9 | 7 | 5 |  |  |
| NCCc1nnc2n1-c1ccc(Br)cc1C(c1ccccn1)=NC2 | > 50 | 30 | > 50 | > 50 | 30 | > 50 | 30 |  |  |
| CC(N)Cc1nnc2n1-c1ccccc1C(c1ccccc1)=NC2 (stereo unspecified) | > 50 | 40 | > 50 | > 50 | > 50 | > 50 | > 50 |  |  |
| C#CCN(C)Cc1nnc2n1-c1ccccc1C(c1ccccc1Cl)=NC2 | > 50 | > 50 | 2 | 3 | > 50 | 2 | 8 |  |  |
| CN(C)Cc1nnc2n1-c1ccc(Cl)cc1C(c1ccccc1)=NC2 [ADINAZOLAM] |  |  | 0.9 | 5 |  | 0.7 | 1.6 | 0.13 |  |
| NCCc1nnc2n1-c1ccc(Br)cc1C(c1ccccc1)=NC2 | > 50 | 20 | > 50 | > 50 | 7 | 20 | 30 |  |  |
| CN(C)Cc1nnc2n1-c1ccc(Cl)cc1/C(c1ccccc1)=N\CC2 | > 50 | > 50 | > 50 |  | > 50 | > 50 | 15 |  | > 100 |
| CN(C)CCc1nnc2n1-c1ccc(Br)cc1C(c1ccccn1)=NC2 | 9 | 4 | 20 | > 50 | 4 | > 50 | 10 |  |  |
| CN(C)Cc1nnc2n1-c1ccc(Br)cc1C(c1ccccc1)=NC2 | > 50 | 35.4 | 0.7 | 0.8 | 7.4 | 0.8 | 0.1 |  |  |
| Clc1ccc2c(c1)C(c1ccccc1)=NCc1nnc(CCCN3CCN(c4ccccc4)CC3)n1-2 |  |  | > 50 | > 50 |  | > 50 | 10 | 79 | 89 |
| CC(N)Cc1nnc2n1-c1ccccc1C(c1ccccc1Cl)=NC2 (stereo unspecified) | > 50 | 20 | > 50 | 10 | > 50 | > 50 | > 50 |  |  |
| CN(C)Cc1nnc2cc(-c3ccccc3)c3cc(Cl)ccc3n12 | > 50 |  | > 50 |  | > 50 | > 50 | > 50 | 89 | 89 |
| CN(C)CCc1nnc2cc(-c3ccccc3)c3cc(Cl)ccc3n12 | > 50 | 40 | > 50 |  | > 50 | > 50 | > 50 |  |  |
| CN(C)CCc1nnc2n1-c1ccccc1C(c1ccccc1Cl)=NC2 | > 50 | 30 | 5 | 7 | > 50 | > 50 | > 50 |  |  |
| CC(N)c1nnc2n1-c1ccccc1C(c1ccccc1Cl)=NC2 (stereo unspecified) | > 50 | > 50 | 0.2 | 0.2 | > 50 | 0.4 | 3 |  |  |
